ChEMBL document CHEMBL2203192, “Creation of an HDAC-based yeast screening method for evaluation of marine-derived actinomycetes: discovery of streptosetin A” (J Nat Prod, 2012)
Values after ≈ are worked out from the molar mass of the structure shown.

Tests used:
Saccharomyces cerevisiae [1] = test: Inhibition of Sir2p in Saccharomyces cerevisiae DMY2843 assessed as minimum inhibitory concentration
[2] = target: T1, NAD-dependent protein deacetylase sirtuin-2 (Homo sapiens, UniProt Q8IXJ6); test: Inhibition of human recombinant SIRT2 using Arg-His-Lys-Lys(epsilon-acetyl)-AMC at 37 degC for 45 mins by fluorescent screening assay
T1 sequence (Q8IXJ6 whole entry): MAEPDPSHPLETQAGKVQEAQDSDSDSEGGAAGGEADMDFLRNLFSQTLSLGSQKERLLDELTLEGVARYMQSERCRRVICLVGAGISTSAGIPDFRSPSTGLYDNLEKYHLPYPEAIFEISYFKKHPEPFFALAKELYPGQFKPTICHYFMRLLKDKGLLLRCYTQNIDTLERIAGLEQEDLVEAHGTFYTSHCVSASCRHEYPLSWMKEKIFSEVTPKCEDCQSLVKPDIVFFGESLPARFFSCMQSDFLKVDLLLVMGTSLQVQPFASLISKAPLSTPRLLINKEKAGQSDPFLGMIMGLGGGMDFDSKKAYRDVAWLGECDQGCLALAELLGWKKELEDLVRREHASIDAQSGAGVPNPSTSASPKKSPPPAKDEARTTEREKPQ

[3] = target: T2, NAD-dependent protein deacetylase sirtuin-1 (Homo sapiens, UniProt Q96EB6); test: Inhibition of human recombinant SIRT1 using Arg-His-Lys-Lys(epsilon-acetyl)-AMC at room temperature for 45 mins by fluorescent screening assay
T2 sequence (Q96EB6 whole entry): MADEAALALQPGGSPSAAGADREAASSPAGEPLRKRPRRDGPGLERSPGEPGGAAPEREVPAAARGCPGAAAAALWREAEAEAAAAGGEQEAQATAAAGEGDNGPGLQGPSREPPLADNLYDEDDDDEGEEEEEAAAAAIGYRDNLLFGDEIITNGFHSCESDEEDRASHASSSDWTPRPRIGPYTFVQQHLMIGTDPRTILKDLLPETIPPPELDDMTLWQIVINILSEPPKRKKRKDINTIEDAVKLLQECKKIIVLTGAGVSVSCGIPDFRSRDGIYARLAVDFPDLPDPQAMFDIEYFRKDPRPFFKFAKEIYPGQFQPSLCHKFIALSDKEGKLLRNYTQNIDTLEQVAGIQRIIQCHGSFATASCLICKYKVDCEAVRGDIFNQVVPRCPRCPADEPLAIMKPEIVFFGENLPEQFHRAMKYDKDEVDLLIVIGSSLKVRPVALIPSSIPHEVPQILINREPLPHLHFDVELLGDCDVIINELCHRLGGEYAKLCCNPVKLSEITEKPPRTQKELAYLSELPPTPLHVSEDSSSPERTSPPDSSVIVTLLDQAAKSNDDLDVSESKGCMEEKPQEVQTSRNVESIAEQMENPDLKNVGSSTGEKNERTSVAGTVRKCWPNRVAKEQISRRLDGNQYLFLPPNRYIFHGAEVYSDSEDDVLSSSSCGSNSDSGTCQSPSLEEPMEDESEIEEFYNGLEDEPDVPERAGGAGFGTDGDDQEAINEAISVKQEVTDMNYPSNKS

Saccharomyces cerevisiae [4] = test: Cytotoxicity against Saccharomyces cerevisiae DMY2843 at 10 mM; assay type: organism-based; conditions: in vivo, 10000 µM

SMILES | MIC (Saccharomyces cerevisiae [1]) [µM] | IC50 [2] [mM] | IC50 [3] [mM] | Activity (Saccharomyces cerevisiae [4])
CC(NC(=O)c1ccccc1/N=C/c1c(O)ccc2ccccc12)c1ccccc1 (stereo not given) | 12.5 (≈ 4.93 µg/mL) | – | – | –
CC[C@@H]1CC(=O)[C@H]2[C@@H](CC=C(C)[C@@H]2O)[C@]1(C)C(=O)C1=C(O)NCC1=O [STREPTOSETIN A] | 2500 (≈ 869 µg/mL) | 4.5 | 3.7 | Toxic
